Measurements published in publication PMC12180637, “Active peptides of TSP-1 inhibit retinal angiogenesis through the CD36 pathway in a rat model of choroidal neovascularization” (PLOS One, 2025).
“And” between values parts separate entries of the source, which are not always exact repeats. Identical values can stand only once. Square brackets hold non-standard residues; d marks the D form. Nva = CCC[C@H](N)C(=O)O; Sar = CNCC(=O)O

Legend:
[1] = system: VEGF-induced angiogenesis; conditions: cited from earlier work
Source text: (§1) Additionally, TSP-1 could interact with various ligands, including extrac ...

tumor growth = conditions: cited from earlier work; for apoptotic index of endothelial cells (in words): in vivo studies, mouse tumor models; for tumor growth (in words): syngeneic and xenograft mouse models
Source text: as §1

RF/6A cells [2] = assay: Wound-healing assay; type: cell-based; conditions: 1 ng/mL exogenous VEGF, 24 h
Description: (§2) RF/6A cells were obtained from Cell Cook, China. The cells were maintained in minimum essential medium supplemented with 10% fetal Bovine serum (Viva Cell, China) and 1% penicillin-streptomycin solution (Viva Cell, China). Additionally, the samples were cultured in an incubator under the condition of 37 °C and 5% CO2.
After the drawing of 3 parallel lines at the external bottom surface of a 6-well plate, 4 × 10^5 RF/6A cells were seeded in it and incubated to a density of 80–90%. Next, scratches perpendicular to the drawn lines were made at the bottom of each well by a 200 μL pipette tip. Subsequently, the wells were rinsed three times with PBS to eliminate the floating cells. Whereafter, the medium was replaced with the serum that contained 1% fetal bovine. The wound healing process was assessed at the time point of 0 h and 24 h, alongside the acquirement of microscope images at 10× for the record and statistical analysis of the scratch distance. Additionally, the scratch healing rate was calculated as follows:
Scratch_healing_rate=0h_scratch_distance−24h_scratch_distance/0h_scratch_distance100% (1)

RF/6A cells [3] = assay: CCK-8 cell viability assay; type: cell-based; conditions: CCK-8, different concentrations of recombinant human VEGF165 (S2 Fig A)
Description: as §2
(§3) The Cell Counting Kit-8 (CCK-8) from Proteintech (China) and 5-ethynyl-2′-deoxyuridine (EdU)-488™ kit from Beyotime (China) were employed for the assessment of the proliferative viability of RF/6A cell. Additionally, 10^4 cells were plated in 96-well plates. After 24 h of intervention, according to different groups, CCK-8 detection reagent was added, and the optical density was recorded at 450 nm during the following 4 h. Regarding the EdU assay, 2 × 10^4 cells were cultured in 24-well plates after 24 h of intervention according to different groups. Firstly, the EdU working solution (20μM) preheated at 37 ° C was combined with medium at the ratio of 1:1. Secondly, the cells were washed three times with (phosphate buffered saline) PBS after the fixing with 4% paraformaldehyde for 15 min. Subsequently, the samples were permeabilized with PBS that contained 0.3% Triton X-100 for 10 min, followed by three times of washing with PBS, after which the EdU detection was conducted. […] Finally, fluorescence detection was performed after nuclear staining by Hoechst 33342.

RF/6A cells [4] = assay: EdU proliferation assay; type: cell-based; conditions: Fig 2 data, 1 ng/mL exogenous VEGF alone, 24 h, single replicates (n = 4)
Description: as §2, §3

VEGF = assay: Western blot of VEGF in RF/6A cells; type: cell-based; conditions: exogenous VEGF 1 ng/mL
Description: (§4) Western blot analysis was employed in this study for the assessment of the expression levels of proteins. Total protein was extracted with Radioimmunoprecipitation (RIPA) buffer (Solarbio, China) that contained phenylmethanesulfonyl fluoride (PMSF), followed by separation by 10% sodium dodecyl sulfate–polyacrylamide gel electrophoresis (SDS-PAGE, Yazyme, China). Additionally, the constant pressure of 80 V was used for 40–50 min during the electrophoresis of the proteins in compression gel. Besides, the voltage was adjusted to 120 V after the entering of proteins to the separating gel. Subsequently, proteins were transferred onto a polyvinylidene difluoride (PVDF) membrane (Millipore, USA), and the operation time was determined according to the molecular weight of the protein (VEGF-55 min, CD31-91 min). The membrane was blocked with 5% non-fat milk for 2 h and incubated with primary antibodies overnight at 4 °C, and the primary antibody was diluted with Tris-Buffered Saline with Tween 20 (TBST) following the instructions. Subsequently, the samples were washed three times with TBST, incubated with the corresponding secondary antibody for 90 min at room temperature, and washed three times with TBST. Besides, Electrochemiluminescence (Invitrogen iBright™ FL1500) was used for the visualization of proteins, followed by the imaging analysis of the experimental results. […]

CD31 = assay: Western blot of CD31 in RF/6A cells; type: cell-based; conditions: exogenous VEGF 1 ng/mL
Description: as §4

RF/6A cells [5] = assay: Flow cytometry, total apoptosis rate; type: cell-based
[6] = system: CD36 knockdown RF/6A cells; assay: EdU assay in CD36 knockdown cells; type: cell-based; conditions: Fig 5 data, exogenous VEGF alone, single replicates (n = 4)
Description: The Cell Counting Kit-8 (CCK-8) from Proteintech (China) and 5-ethynyl-2′-deoxyuridine (EdU)-488™ kit from Beyotime (China) were employed for the assessment of the proliferative viability of RF/6A cell. Additionally, 10^4 cells were plated in 96-well plates. After 24 h of intervention, according to different groups, CCK-8 detection reagent was added, and the optical density was recorded at 450 nm during the following 4 h. Regarding the EdU assay, 2 × 10^4 cells were cultured in 24-well plates after 24 h of intervention according to different groups. Firstly, the EdU working solution (20μM) preheated at 37 ° C was combined with medium at the ratio of 1:1. Secondly, the cells were washed three times with (phosphate buffered saline) PBS after the fixing with 4% paraformaldehyde for 15 min. Subsequently, the samples were permeabilized with PBS that contained 0.3% Triton X-100 for 10 min, followed by three times of washing with PBS, after which the EdU detection was conducted. Whereafter, 100 μL Click reaction solution was added to each well and incubated at room temperature in the dark for 30 min, followed by washing again with PBS, the Click reaction solution configuration method was shown in Table 1. Finally, fluorescence detection was performed after nuclear staining by Hoechst 33342. […]

[7] = stated in brackets for the recombinant human VEGF165 protein used; no test or source described; cited from earlier work
Description: CCK-8 and EdU assays were conducted to evaluate the cellular proliferation after a 24 h exposure to exogenous VEGF, which was amined to analyze the impact of 10 μg/mL VR-13 peptide on RF/6A cell proliferation induced through exogenous VEGF.

Substance | VEGF-induced angiogenesis (in words) [1] | apoptotic index of endothelial cells (in words) (tumor growth) | tumor growth (in words) (tumor growth) | migration of RF/6A cells exposed to VEGF (in words) (RF/6A cells [2]) | optimal concentration for inducing significant proliferation of RF/6A (RF/6A cells [3]) [ng/mL] | EdU positive(%) (RF/6A cells [4]) | VEGF expression in RF/6A cells after exogenous VEGF (in words) (VEGF) | CD31 expression in RF/6A cells after exogenous VEGF (in words) (CD31) | apoptosis rate (RF/6A cells [5]; Fig 3 data, RF/6A, 1 ng/mL exogenous VEGF alone, single replicates (n = 6)) | apoptosis of RF/6A cells after exogenous VEGF (in words) (RF/6A cells [5]; exogenous VEGF) | EdU positive(%) [6] | EC50 [7] [ng/mL]
Ac-Sar-Gly-Val-Dallolle-Thr-Nva-Ile-Arg-Pro-NHEt [ABT-510, anti-angiogenic nonapeptide based on TSP-1 type I repeats] | inhibit VEGF-induced angiogenesis | increase of the apoptotic index of endothelial cells | slow down the tumor growth |  |  |  |  |  |  |  |  | 
Ac-[Sar]GV[dI]T[Nva]IRP-NHEt [ABT-526, anti-angiogenic nonapeptide based on TSP-1 type I repeats] |  | increase of the apoptotic index of endothelial cells | slow down the tumor growth |  |  |  |  |  |  |  |  | 
VEGF |  |  |  | strong cell migration ability | 1 | 37.99% and 38.36% and 36.47% and 33.64% | significantly upregulated | significantly upregulated | 8.99 and 11.46 and 10.46 and 11.80 and 11.97 and 12.71 | didn’t exhibit a connection with apoptosis | 24% and 28.99% and 30.32% and 23.72% | 0.3 to 3.75
